Data set [1] concerns the target T1, Mushroom tyrosinase (Agaricus bisporus, UniProt O42713+Q00024+C7FF04+C7FF05). Description: Inhibition of mushroom tyrosinase using L-DOPA as substrate assessed as decrease in dopachrome formation preincubated for 10 mins followed by substrate addition by spectrophotometric method.
Data set [2] concerns B16-F10. Description: Cytotoxicity against mouse B16F10 cells assessed as decrease in cell viability at >50 uM after 48 hrs by MTT assay. The class given is cell-based. To be noted: b16-f10, 48 h. (In general: Tetrazolium dyes change colour on reduction, which living cells bring about.)
Data set [3] concerns B16-F10. Description: Cytotoxicity against mouse B16F10 cells assessed as decrease in cell viability at <50 uM after 48 hrs by MTT assay. The class given is cell-based. The note with it: b16-f10, 48 h.
In data set [4] the target is T2, Tyrosinase (Mus musculus) (UniProt P11344).
T2 sequence (whole entry): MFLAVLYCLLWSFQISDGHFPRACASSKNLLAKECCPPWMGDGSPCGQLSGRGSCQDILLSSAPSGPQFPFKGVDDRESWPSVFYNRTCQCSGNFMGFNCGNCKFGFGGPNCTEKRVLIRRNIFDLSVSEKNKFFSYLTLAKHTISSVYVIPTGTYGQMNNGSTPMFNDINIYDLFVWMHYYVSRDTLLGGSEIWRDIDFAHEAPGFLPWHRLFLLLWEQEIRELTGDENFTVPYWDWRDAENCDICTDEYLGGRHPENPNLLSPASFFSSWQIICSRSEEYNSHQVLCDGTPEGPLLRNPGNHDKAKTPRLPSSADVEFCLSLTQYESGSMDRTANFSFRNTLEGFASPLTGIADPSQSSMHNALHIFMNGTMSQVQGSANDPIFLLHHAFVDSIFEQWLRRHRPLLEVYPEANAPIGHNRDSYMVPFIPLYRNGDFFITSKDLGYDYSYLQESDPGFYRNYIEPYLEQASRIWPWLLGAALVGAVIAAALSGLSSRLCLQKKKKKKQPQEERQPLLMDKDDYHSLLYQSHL
As to the kind of experiment: Inhibition of tyrosinase in alpha-MSH-stimulated mouse B16F10 cells up to 50 uM preincubated for 48 hrs followed by L-DOPA addition.

Data set [5] concerns the target T2, Tyrosinase (Mus musculus). As to the kind of experiment: Inhibition of tyrosinase in alpha-MSH-stimulated mouse B16F10 cells assessed as decrease in melanin content up to 50 uM after 48 hrs.
In data set [6] the target is T1, Mushroom tyrosinase. As to the kind of experiment: Competitive inhibition of mushroom tyrosinase using 0.3 to 1 mM L-DOPA as substrate assessed as decrease in dopachrome formation preincubated for 10 mins followed by substrate addition by Lineweaver-Burk plot analysis.
The target of data set [7] is T3, Mushroom tyrosinase (Agaricus bisporus) (UniProt O42713+Q00024+C7FF04+C7FF05). Description: Potency index, ratio of kojic acid IC50 to test compound IC50 for mushroom tyrosinase.
For data set [8], the target named is T2, Tyrosinase (Mus musculus). Description: Inhibition of tyrosinase in alpha-MSH-stimulated mouse B16F10 cells assessed as residual activity at 25 uM preincubated for 48 hrs followed by L-DOPA addition relative to control.
Data set [9] addresses T2, Tyrosinase (Mus musculus). As to the kind of experiment: Inhibition of tyrosinase in alpha-MSH-stimulated mouse B16F10 cells assessed as decrease in melanin content at 10 to 50 uM after 48 hrs.
In data set [10] the target is T2, Tyrosinase (Mus musculus). As to the kind of experiment: Inhibition of tyrosinase in alpha-MSH-stimulated mouse B16F10 cells assessed as residual activity at 50 uM preincubated for 48 hrs followed by L-DOPA addition relative to control.
Data set [11] deals with T3, Mushroom tyrosinase (Agaricus bisporus). Description: Uncompetitive inhibition of mushroom tyrosinase using 0.3 to 1 mM L-DOPA as substrate assessed as decrease in dopachrome formation preincubated for 10 mins followed by substrate addition by Lineweaver-Burk plot analysis.
Data set [12] has as its target T2, Tyrosinase (Mus musculus). As to the kind of experiment: Inhibition of tyrosinase in alpha-MSH-stimulated mouse B16F10 cells assessed as residual activity at 10 uM preincubated for 48 hrs followed by L-DOPA addition relative to control.
For data set [13], the target named is T2, Tyrosinase (Mus musculus). As to the kind of experiment: Inhibition of tyrosinase in alpha-MSH-stimulated mouse B16F10 cells preincubated for 48 hrs followed by L-DOPA addition.
In data set [14] the target is T2, Tyrosinase (Mus musculus). Description: Inhibition of tyrosinase in alpha-MSH-stimulated mouse B16F10 cells assessed as decrease in melanin content after 48 hrs.
For data set [15], the target named is T2, Tyrosinase (Mus musculus). As to the kind of experiment: Inhibition of tyrosinase in alpha-MSH-stimulated mouse B16F10 cells at 10 uM preincubated for 48 hrs followed by L-DOPA addition relative to control.
The target in data set [16] is T2, Tyrosinase (Mus musculus). Description: Inhibition of tyrosinase in alpha-MSH-stimulated mouse B16F10 cells at 10 to 50 uM preincubated for 48 hrs followed by L-DOPA addition and subsequent incubation in dark measured after 1 hr by zymographic method.
The target of data set [17] is T2, Tyrosinase (Mus musculus). As to the kind of experiment: Inhibition of tyrosinase in alpha-MSH-stimulated mouse B16F10 cells at 25 uM preincubated for 48 hrs followed by L-DOPA addition relative to control.

Active and inactive are the calls of the source. The calls are words filed in the database; no cut-off is given here.

`O=c1oc2cc(O)cc(O)c2cc1-c1cccs1`: in [1], the half-maximal inhibitory concentration (IC50) amounted to 0.15 µM. In addition, the Activity entry is given as “Toxic” in [2] and “Non-Toxic” in [3]. Also, the inhibition result in data set [4] and in [5] was “inactive” throughout. For the same molecule, the inhibitory constant (Ki) in data set [6] stood at 0.24 µM. For the same molecule, the Ratio IC50 in data set [7] amounted to 120.

Turning to `O=c1oc2cc(O)cc(O)c2cc1-c1ccccc1`, the IC50 in data set [1] is 408.37 µM.

Regarding `O=c1oc2ccc(O)cc2cc1-c1cccs1`, the IC50 in [1] was above 1000 µM.

In the case of `COc1ccc2oc(=O)c(-c3cccs3)cc2c1`, in data set [1], the IC50 is above 1000 µM.

As to `O=c1oc2cc(O)cc(O)c2cc1-c1cc(Br)cs1`, the Activity in data set [8] is 78.5%; in [10], 27.7%; in data set [2], “Toxic”; in [3], “Non-Toxic”; in data set [12], 94.3%. For the same molecule, the IC50 in [1] is 0.38 µM. Moreover, in data set [9], the inhibition entry was “Active”. Further, the Kis in [11] came to 0.128 µM. Besides, the inhibition entry in data set [13] and in data set [14] was “Dose-dependent effect” each time. The Ratio IC50 in data set [7] turned out to be 50.

With `O=c1oc2cc(O)cc(O)c2cc1-c1ccc(Br)cc1`, the 50% inhibitory concentration (IC50) in data set [1] was found to be 1.05 µM. Also, the inhibition entry in data set [9] and in data set [16] was “Active” each time. In addition, the inhibition is 18.1% in data set [15], “Dose-dependent effect” in data set [13], “Dose-dependent effect” in data set [14] and 51.8% in data set [17].

Take `COc1ccc2oc(=O)c(-c3cc(Br)cs3)cc2c1`: the 50% inhibitory concentration (IC50) in data set [1] is above 1000 µM.

As for `O=c1oc2c(O)c(O)ccc2cc1-c1cc(Br)cs1`, the IC50 in [1] came to 259.03 µM.

Turning to `O=c1oc2c(O)cccc2cc1-c1cc(Br)cs1`, the IC50 in data set [1] is above 1000 µM.

Take `O=c1oc2cc(O)cc(O)c2cc1-c1ccsc1`: the 50% inhibitory concentration (IC50) in data set [1] stood at 0.19 µM. Besides, the inhibition result in [4] and in data set [5] was “inactive” each time.

Consider `O=c1oc2cc(O)ccc2cc1-c1cc(Br)cs1`, for which the IC50 in [1] is 31.8 µM.

Turning to `O=c1oc2cc(O)ccc2cc1-c1cccs1`, the IC50 in data set [1] was above 1000 µM.

In general, IC50 refers to the midpoint of a concentration-inhibition curve. The term inhibition denotes the change of the read-out against control, counted positive when it falls. What is called Ki is the dissociation constant of the complex between target and ligand, obtained from inhibition or displacement.

These data come from ChEMBL document CHEMBL4000253 (Bioorg Med Chem, 2017).
